Laboratory results reported in US20100317850A1 (priority 2008, published 2010).

What follows are compounds tested on Aβ42 production (assay: Quantification of Aβ peptide in culture of neurons from rat fetus brain (Aβ ELISA)). Conditions: Neuron, 72 h; rat primary neuronal culture (cerebral cortex, embryonic day 18 Wistar rats); medium collected three days after addition of the compound; Aβx-42 ELISA; read-out: Aβ42 production reducing effect IC50.
Assay type: cell-based
Outline: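 Primary cortical neurons from embryonic day 18 Wistar rats were cultured 4 days, then exposed to compound in Neurobasal/B27 without 2-ME, final DMSO ≤1%. After three days, medium was collected and Aβx-42 measured undiluted by sandwich ELISA.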
For `NC1=N[C@@]2(c3cc(NC(=O)c4cnc(OCCF)cn4)ccc3F)CCC[C@H]2CS1` (single isomer, unassigned) [Example 183, N-[3-((4aR*,7aS*)-2-amino-4a,5,6,7-tetrahydro-4H-cyclopenta[d][1,3]thiazin-7a-yl)-4-fluorophenyl]-5-(2-fluoroethoxy)-pyrazine-2-carboxamide], the IC50 was 28 nM. Work on `CO[C@@H]1C[C@H]2CSC(N)=N[C@@]2(c2cc(NC(=O)c3cnc(OCF)cn3)ccc2F)C1` (relative stereo) [Example 96, (+)-N-[3-((4aR*,6R*,7aS*)-2-amino-6-methoxy-4a,5,6,7-tetrahydro-4H-cyclopenta[d][1,3]thiazin-7a-yl)-4-fluorophenyl]-5-fluoromethoxypyrazine-2-carboxamide] yielded an IC50 of 1 nM. In the case of `N#Cc1ccc(C(=O)Nc2ccc(F)c([C@]34C[C@@H](F)C[C@H]3CSC(N)=N4)c2)nc1` (relative stereo) [Example 110, (+)-N-[3-((4aR*,6S*,7aS*)-2-amino-6-fluoro-4a,5,6,7-tetrahydro-4H-cyclopenta[d][1,3]thiazin-7a-yl)-4-fluorophenyl]-5-cyanopyridine-2-carboxamide], the IC50 is reported as 5 nM. In the case of `C[C@H]1OC[C@]2(c3cc(NC(=O)c4cnc(C(F)F)cn4)ccc3F)N=C(N)SC[C@H]12` (relative stereo) [Example 58, N-[3-((4aS*,5R*,7aS*)-2-amino-5-methyl-4a,5-dihydro-4H-furo[3,4-d][1,3]thiazin-7a-yl)-4-fluorophenyl]-5-difluoromethylpyrazine-2-carboxamide], the IC50 is reported as 7 nM. With `CSc1cnc(C(=O)Nc2ccc(F)c([C@]34CCC[C@H]3CSC(N)=N4)c2)cn1` (single isomer, unassigned) [Example 135, N-[3-((4aR*,7aS*)-2-amino-4a,5,6,7-tetrahydro-4H-cyclopenta[d][1,3]thiazin-7a-yl)-4-fluorophenyl]-5-methylsulfanyl-pyrazine-2-carboxamide] the IC50 was 15 nM. For `Cn1cc(-c2ccc(C(=O)Nc3ccc(F)c([C@]45CCC[C@H]4CSC(N)=N5)c3)nc2)cn1` [Example 239], the IC50 was 238 nM. `CO[C@@H]1CC[C@]2(c3cc(NC(=O)c4ccc(C#N)cn4)ccc3F)N=C(N)SC[C@H]12` (relative stereo) [Example 65, N-[3-((4aS*,5R*,7aS*)-2-amino-5-methoxy-4a,5,6,7-tetrahydro-4H-cyclopenta[d][1,3]thiazin-7a-yl)-4-fluorophenyl]-5-cyanopyridine-2-carboxamide] showed an IC50 of 38 nM. Compound `CC[C@H]1OC[C@]2(c3cc(NC(=O)c4cnc(OCF)cn4)ccc3F)N=C(N)SC[C@H]12` (relative stereo) [Example 52, N-[3-((4aS*, 5R*,7aS*)-2-amino-5-ethyl-4a,5-dihydro-4H-furo[3,4-d][1,3]thiazin-7a-yl)-4-fluorophenyl]-5-fluoromethoxypyrazine-2-carboxamide] has an IC50 of 2 nM. In the case of `CO[C@@H]1C[C@H]2CSC(N)=N[C@@]2(c2cc(NC(=O)c3cnc(OC(F)F)cn3)ccc2F)C1` (relative stereo) [Example 95], the IC50 is reported as 1 nM. `NC1=N[C@@]2(c3cc(NC(=O)c4ncccc4F)ccc3F)CCCCC[C@H]2CS1` [Example 251] was tested, and the IC50 was 120 nM. `NC1=N[C@@]2(c3cc(NC(=O)c4ncccc4Br)ccc3F)CCCCC[C@H]2CS1` [Example 253] gave an IC50 of 171 nM. `C[C@H]1OC[C@]2(c3cc(NC(=O)c4cnc(OC(F)F)cn4)ccc3F)N=C(N)SC[C@H]12` (relative stereo) [Example 55, N-[3-((4aS*,5R*,7aS*)-2-amino-5-methyl-4a,5-dihydro-4H-furo[3,4-d][1,3]thiazin-7a-yl)-4-fluorophenyl]-5-difluoromethoxypyrazine-2-carboxamide] gave an IC50 of 1.1 nM. Compound `NC1=N[C@@]2(c3cc(NC(=O)c4ccc(C(F)(F)F)cn4)ccc3F)COC[C@H]2CS1` (relative stereo) [Example 165, N-[3-((4aS*,7aS*)-2-amino-4a,5-dihydro-4H-furo[3,4-d][1,3]thiazin-7a-yl)-4-fluorophenyl]-5-trifluoromethylpyridine-2-carboxamide] has an IC50 of 12 nM. For `C[C@H]1OC[C@]2(c3cc(NC(=O)c4cnc(OCF)cn4)ccc3F)N=C(N)SC[C@H]12` (relative stereo) [Example 57, N-[3-((4aS*,5R*,7aS*)-2-amino-5-methyl-4a,5-dihydro-4H-furo[3,4-d][1,3]thiazin-7a-yl)-4-fluorophenyl]-5-fluoromethoxypyrazine-2-carboxamide], the IC50 was 3 nM. `Cc1cc(Cl)ccc1C(=O)Nc1ccc(F)c([C@]23CCC[C@H]2CSC(N)=N3)c1` [Example 197] gave an IC50 of 220 nM. For `NC1=N[C@@]2(c3cc(NC(=O)c4ccc(Cl)cn4)ccc3F)COC[C@H]2CS1` (relative stereo) [Example 26, N-[3-((4aS*,7aS*)-2-amino-4a,5-dihydro-4H-furo[3,4-d][1,3]thiazin-7a-yl)-4-fluorophenyl]-5-chloropyridine-2-carboxamide], the IC50 was 6.9 nM. `NC1=N[C@@]2(c3cc(NC(=O)c4ncc(F)cc4F)ccc3F)CCCC[C@H]2CS1` (single isomer, unassigned) [Example 105, N-[3-((4aR*,8aS*)-2-amino-4,4a,5,6,7,8-hexahydrobenzo[d][1,3]thiazin-8a-yl)-4-fluorophenyl]-3,5-difluoropyridine-2-carboxamide] showed an IC50 of 121 nM. Compound `NC1=N[C@@]2(c3cc(NC(=O)c4ccc(Br)o4)ccc3F)CCCC[C@H]2CS1` [Example 122] has an IC50 of 123 nM. `CO[C@@H]1CC[C@H]2CSC(N)=N[C@@]2(c2cc(NC(=O)c3ccc(C#N)cn3)ccc2F)C1` (relative stereo) [Example 202, N-[3-((4aR*,7R*,8aS*)-2-amino-7-methoxy-4,4a,5,6,7,8-hexahydrobenzo[d][1,3]thiazin-8a-yl)-4-fluorophenyl]-5-cyanopyridine-2-carboxamide] was tested, and the IC50 was 3 nM. `COC[C@H]1C[C@]2(c3cc(NC(=O)c4cnc(OCF)cn4)ccc3F)N=C(N)SC[C@@H]2CO1` [Example 38, N-[3-((4aS,7R,8aS)-2-amino-7-methoxymethyl-4a,5,7,8-tetrahydro-4H-6-oxa-3-thia-1-azanaphthalen-8a-yl)-4-fluorophenyl]-5-fluoromethoxypyrazine-2-carboxamide] showed an IC50 of 6 nM. In the case of `NC1=N[C@@]2(c3cc(NC(=O)c4ccncn4)ccc3F)CCC[C@H]2CS1` [Example 233], the IC50 is reported as 86 nM. In the case of `COC[C@H]1OC[C@]2(c3cc(NC(=O)c4cnc(OCF)cn4)ccc3F)N=C(N)SC[C@H]12` [Example 69, N-[3-((4aS,5S,7aS)-2-amino-5-methoxymethyl-4a,5-dihydro-4H-furo[3,4-d][1,3]thiazin-7a-yl)-4-fluorophenyl]-5-fluoromethoxypyrazine-2-carboxamide], the IC50 is reported as 2 nM. `C[C@H]1OC[C@]2(c3cc(NC(=O)c4ccc(OC(F)F)cn4)ccc3F)N=C(N)SC[C@H]12` (relative stereo) [Example 59, N-[3-((4aS*,5R*,7aS*)-2-amino-5-methyl-4a,5-dihydro-4H-furo[3,4-d][1,3]thiazin-7a-yl)-4-fluorophenyl]-5-difluoromethoxypyridine-2-carboxamide] was tested, and the IC50 was 2 nM. `NC1=N[C@@]2(c3cc(NC(=O)c4ccc(Br)cn4)ccc3F)CCCCC[C@H]2CS1` (single isomer, unassigned) [Example 249, N-[3-((4aR*,9aS*)-2-amino-4a,5,6,7,8,9-hexahydro-4H-cyclohepta[d][1,3]thiazin-9a-yl)-4-fluroophenyl]-5-bromopyridine-2-carboxamide] gave an IC50 of 18 nM. `N#Cc1cnc(C(=O)Nc2ccc(F)c([C@]34CCC[C@H]3CSC(N)=N4)c2)nc1` [Example 126] was tested, and the IC50 was 70 nM. With `NC1=N[C@@]2(c3cc(NC(=O)c4ncc(Br)cn4)ccc3F)CCC[C@H]2CS1` (single isomer, unassigned) [Example 176, N-[3-((4aR*,7aS*)-2-amino-4a,5,6,7-tetrahydro-4H-cyclopenta[d][1,3]thiazin-7a-yl)-4-fluorophenyl]-5-bromopyrimidine-2-carboxamide] the IC50 was 10 nM. For `N#Cc1ccc(C(=O)Nc2ccc(F)c([C@]34CCOC[C@H]3CSC(N)=N4)c2)nc1` (single isomer, unassigned) [Example 28, N-[3-((4aS*,8aS*)-2-amino-4a,7,8-tetrahydro-4H-6-oxa-3-thia-1-azanaphthalen-8a-yl)-4-fluorophenyl]-5-cyanopyridine-2-carboxamide], the IC50 was 12 nM. For `NC1=N[C@@]2(c3cc(NC(=O)c4ccc(OCc5ccccc5)cn4)ccc3F)CCC[C@H]2CS1` [Example 196], the IC50 was 977 nM. `CCOC(=O)c1cnc(C(=O)Nc2ccc(F)c([C@]34CCC[C@H]3CSC(N)=N4)c2)nc1` [Example 128] gave an IC50 of 231 nM. In the case of `COc1ccc(NC(=O)c2ccc(Cl)cn2)cc1[C@]12CCC[C@H]1CSC(N)=N2` (racemic) [Example 34, (±)-N-[3-((4aR*,7aS*)-2-amino-4a,5,6,7-tetrahydro-4H-cyclopenta[d][1,3]thiazin-7a-yl)-4-methoxyphenyl]-5-chloropyridine-2-carboxamide], the IC50 is reported as 115 nM.
